Data reported in publication PMC6272684, “Synthesis, Antiproliferative and Antifungal Activities of 1,2,3-Triazole-Substituted Carnosic Acid and Carnosol Derivatives” (Molecules, 2015).
“And” between values parts separate entries of the source, which are not always exact repeats. Identical values can stand only once.

Key:
[1] = system: C. albicans ATCC 10231; assay: Antifungal broth microdilution (CLSI M27-A3), growth inhibition; format: cell-based, Candida albicans; conditions: for MIC50 (minimum concentration to inhibit 50% of fungal growth), C. albicans: C. albicans ATCC 10231
Protocol: (§1) The antifungal properties of compounds 1–24 against two clinical important fungal species, C. albicans ATCC 10231 and C. neoformans ATCC 32264 were investigated. Results were expressed as the percentages of inhibition of each fungus in the range 250–3.9 μg∙mL^−1 by using the standardized microbroth dilution method M-27A3 of Clinical and Laboratory Standards Institute which assures reliable and reproducible results.
(§2) For the antifungal evaluation, standardized strains from the American Type Culture Collection (ATCC), Rockville, MD, USA, were used. The microorganisms included yeasts (Candida albicans ATCC 10231 and Cryptococcus neoformans ATCC 32264). Strains were grown on Sabouraud-chloramphenicol agar slants for 48 h at 30 °C, maintained on slopes of Sabouraud-dextrose agar (SDA, Oxoid), and subcultured every 15 days to prevent pleomorphic transformations. Inocula of cell or spore suspensions were obtained according to reported procedures and adjusted to 1–5 × 10^3 cells/spores with colony forming units (CFU)/mL [29].
(§3) Broth microdilution techniques were performed in 96-well microplates according to the Clinical and Laboratory Standards Institute Reference Method for Broth Dilution Antifungal Susceptibility Testing of Yeasts, Approved Standard M27-A3 [29]. For the assay, compound test wells (CTWs) were prepared with stock solutions of each compound in DMSO (maximum concentration ≤1%), diluted with RPMI-1640, to final concentrations of 250–3.9 μg∙mL^−1. An inoculum suspension (100 μL) was added to each well (final volume in the well = 200 μL). A growth control well (GCW) (containing medium, inoculum, and the same amount of DMSO used in a CTW, but compound-free) and a sterility control well (SCW) (sample, medium, and sterile water instead of inoculum) were included for each fungus tested. Microtiter trays were incubated in a moist, dark chamber at 30 °C for 48 h for both yeasts. Microplates were read in a VERSA Max microplate reader (Molecular Devices, Sunnyvale, CA, USA). Amphotericin B (Sigma-Aldrich) was used as positive control. Tests were performed in triplicate. Reduction of growth for each compound concentration was calculated as follows: % of inhibition = 100 − (OD 405 CTW − OD 405 SCW)/(OD 405 GCW − OD 405 SCW). The means ± SEM were the results of triplicate tests. Three endpoints were defined from the assay explained above and the dose-response curves. Minimum Inhibitory concentration (MIC) resulting in total fungal growth inhibition was named MIC100 while MIC50 was defined as the minimum concentration that inhibits 50% of the fungal growth.

[2] = system: C. neoformans ATCC 32264; assay: as above; format: cell-based, Cryptococcus neoformans; conditions: for MIC50 (minimum concentration to inhibit 50% of fungal growth), C. neoformans: C. neoformans ATCC 32264
Protocol: as §1, §2, §3

MIC50 (minimum concentration to inhibit 50% of fungal growth), C. albicans [1] [µg/mL]	MIC50 (minimum concentration to inhibit 50% of fungal growth), C. neoformans [2] [µg/mL]	Structure (SMILES)	Inhibition percentage against C. albicans ATCC 10231 ([1]; 3.9 μg∙mL^−1, 48 h) [%]	Inhibition percentage against C. albicans ATCC 10231 ([1]; 7.8 μg∙mL^−1, 48 h) [%]	Inhibition percentage against C. albicans ATCC 10231 ([1]; 15.6 μg∙mL^−1, 48 h) [%]	Inhibition percentage against C. albicans ATCC 10231 ([1]; 62.5 μg∙mL^−1, 48 h) [%]	Inhibition percentage against C. albicans ATCC 10231 ([1]; 125 μg∙mL^−1, 48 h) [%]	Inhibition percentage against C. albicans ATCC 10231 ([1]; 250 μg∙mL^−1, 48 h) [%]	Inhibition percentage against C. albicans ATCC 10231 ([1]; 31. μg∙mL^−1, 48 h) [%]	Inhibition percentage against C. neoformans ATCC 32264 ([2]; 3.9 μg∙mL^−1, 48 h) [%]	Inhibition percentage against C. neoformans ATCC 32264 ([2]; 7.8 μg∙mL^−1, 48 h) [%]	Inhibition percentage against C. neoformans ATCC 32264 ([2]; 15.6 μg∙mL^−1, 48 h) [%]	Inhibition percentage against C. neoformans ATCC 32264 ([2]; 31.2 μg∙mL^−1, 48 h) [%]	Inhibition percentage against C. neoformans ATCC 32264 ([2]; 62.5 μg∙mL^−1, 48 h) [%]	Inhibition percentage against C. neoformans ATCC 32264 ([2]; 125 μg∙mL^−1, 48 h) [%]	Inhibition percentage against C. neoformans ATCC 32264 ([2]; 250 μg∙mL^−1, 48 h)	Antifungal activity against C. albicans (in words) ([1]; at the assayed concentrations (250–3.9 μg∙mL^−1))
>250	>250	COC(=O)C12CCCC(C)(C)C1CCc1cc(C(C)C)c(OC(=O)CCc3cn(Cc4ccc([N+](=O)[O-])cc4)nn3)c(OC(=O)CCc3cn(Cc4ccc([N+](=O)[O-])cc4)nn3)c12 (stereo not drawn) [Compound 15, Methyl(11,12-O-(3-(1-(4-nitrobenzyl)-1H-1,2,3-triazol-4-yl)-propanoyloxy)-abieta-8,11,13-triene)-20-oate]	0.0	0.0	2.6 ± 0.3	8.2 ± 0.3	15.2 ± 2.8	33.4 ± 2.7	3.0 ± 1.1	0.0	0.0	10.0 ± 0.6	13.0 ± 1.4	15.5 ± 2.0	22.0 ± 2.7	45.4 ± 3.0%	–
>250	>250	COC(=O)C12CCCC(C)(C)C1CCc1cc(C(C)C)c(OC(=O)CCCc3cn(Cc4ccc([N+](=O)[O-])cc4)nn3)c(OC(=O)CCCc3cn(Cc4ccc([N+](=O)[O-])cc4)nn3)c12 (stereo not drawn) [Compound 16, Methyl(11,12-O-(4-(1-(4-nitrobenzyl)-1H-1,2,3-triazol-4-yl)-butanoyloxy)-abieta-8,11,13-triene)-20-oate]	0.0	0.8 ± 0.1	2.3 ± 0.1	7.2 ± 0.1	11.7 ± 0.5	21.1 ± 2.4	3.4 ± 0.5	0.0	3.5 ± 0.4	5.0 ± 0.4	7.9 ± 0.1	14.5 ± 0.2	35.5 ± 0.4	36.9 ± 0.8%	–
>250	125	CC(C)c1cc2c(c(OC(=O)CCCc3cn(Cc4ccc(Br)cc4)nn3)c1OC(=O)CCCc1cn(Cc3ccc(Br)cc3)nn1)C13CCCC(C)(C)C1CC2OC3=O (stereo not drawn) [Compound 22, (7β)-11,12-O-(4-(1-(4-bromobenzyl)-1H-1,2,3-triazol-4-yl)-butanoyloxy)-7,20-epoxyabieta-8,11,13-trien-20-one]	0.0	2.9 ± 0.7	5.1 ± 0.4	7.0 ± 1.0	10.1 ± 0.8	12.5 ± 2.2	5.9 ± 0.2	0.0	4.7 ± 0.8	4.8 ± 0.2	7.6 ± 0.9	28.5 ± 1.3	52.3 ± 2.3	–	–
250	125	COC(=O)C12CCCC(C)(C)C1CCc1cc(C(C)C)c(OC(=O)CCCc3cn(Cc4ccccc4)nn3)c(OC(=O)CCCc3cn(Cc4ccccc4)nn3)c12 (stereo not drawn) [Compound 12, Methyl(11,12-O-(4-(1-benzyl-1H-1,2,3-triazol-4-yl)-butanoyloxy)-abieta-8,11,13-triene)-20-oate]	3.4 ± 0.3	3.6 ± 0.4	5.6 ± 1.9	14.9 ± 1.1	27.9 ± 0.1	50.0 ± 5.0	9.3 ± 2.6	0.0	0.0	7.7 ± 1.6	9.6 ± 0.8	17.3 ± 0.2	67.5 ± 0.7	63.1 ± 2.1%	–
>250	>250	CC(C)c1cc2c(c(OC(=O)CCc3cn(CSc4ccccc4)nn3)c1OC(=O)CCc1cn(CSc3ccccc3)nn1)C13CCCC(C)(C)C1CC2OC3=O (stereo not drawn) [Compound 17, (7β)-11,12-O-(3-(((1-phenylthio)methyl)-1H-1,2,3-triazol-4-yl)-propanoyloxy)-7,20-epoxyabieta-8,11,13-trien-20-one]	0.0	2.8 ± 0.6	4.8 ± 1.0	11.5 ± 0.7	21.2 ± 0.2	42.3 ± 0.7	6.7 ± 1.1	0.0	0.0	0.0	0.0	0.0	11.4 ± 1.2	41.1 ± 1.3%	weak effect
>250	250	COC(=O)C12CCCC(C)(C)C1CCc1cc(C(C)C)c(OC(=O)CCCc3cn(Cc4ccc(Br)cc4)nn3)c(OC(=O)CCCc3cn(Cc4ccc(Br)cc4)nn3)c12 (stereo not drawn) [Compound 14, Methyl(11,12-O-(4-(1-(4-bromobenzyl)-1H-1,2,3-triazol-4-yl)-butanoyloxy)-abieta-8,11,13-triene)-20-oate]	1.3 ± 0.2	1.3 ± 0.3	1.9 ± 0.3	9.3 ± 1.5	13.3 ± 0.6	29.1 ± 2.5	6.3 ± 1.5	0.0	4.5 ± 0.2	10.1 ± 1.0	12.0 ± 1.2	16.9 ± 1.1	30.1 ± 1.4	57.2%–67.4% and 67.4 ± 1.7%	–
